For three compounds, β-Lactamase inhibition, IC50 and Zone diameter results are on record in article PMC3319978 (Biochemical Pharmacology, 2011).

For orientation: IC50 means the concentration that inhibits the measured activity by half. The low end stands for higher potency, the high end for lower potency.

Assay [1] concerns β-lactamases. As to conditions: serve as excellent substrates of the β-lactamases; ref 27 (Fisher et al.); cited from earlier work.
Assay [2] concerns the target PDC-3 β-lactamase (Pseudomonas aeruginosa, UniProt P24735, T105A). In words: Inhibition of nitrocefin hydrolysis. In kind it is biochemical.
For assay [3], the system named is ATCC35218 E. coli blaTEM-1. The assay is described as follows: Disc diffusion susceptibility testing. As to conditions: 10 μg of ampicillin and each inhibitor, MH agar, 37 °C, 18 h. On the technique in general: Agar diffusion results depend on both activity and mobility in agar.

On to `CC1(C)[C@H](C(=O)O)N2C(=O)[C@@H](NC(=O)Cc3ccccc3)[C@H]2S1(=O)=O` [compound 19, penicillin G sulfone], for which the β-Lactamase inhibition result in assay [1] is listed as “poor β-lactamase inhibitors”.
`O=C(O)[C@H]1/C(=C/CO)O[C@@H]2CC(=O)N21` [Clavulanic acid, clavulanic acid]: the IC50 in assay [2] was over 100 µM.
Compound `CC1(C)S[C@@H]2[C@H](NC(=O)[C@H](N)c3ccccc3)C(=O)N2[C@H]1C(=O)O` [Ampicillin, ampicillin] had a Zone diameter in assay [3] of 6 mm.
